Assay results as given in the NIST ThermoML archive (doi:10.1016/j.jct.2005.12.004).
± gives the expanded uncertainty stated by the source.

Assays:
[1] = Molar enthalpy of transition or fusion; conditions: DSC
[2] = DTA

Structure (SMILES) | Molar enthalpy of transition or fusion ([1]; Crystal) [kcal/mol] | Normal melting temperature ([2]; Crystal) [°C] | Molar enthalpy of transition or fusion ([1]; Crystal 1) [kcal/mol] | Molar enthalpy of transition or fusion ([1]; Crystal 2) [kcal/mol] | Normal melting temperature ([2]; Crystal 1) [°C] | Triple point temperature ([2]; Crystal 2) [K]
c1ccc(-c2ccccc2)cc1 [biphenyl] | 4.71 ± 0.215 | 69.22 ± 0.53 |  |  |  | 
NCCCCCCN [1,6-hexanediamine] | 9.41 ± 0.263 | 38.5 ± 0.53 |  |  |  | 

The remaining lines, values ahead:

Molar enthalpy of transition or fusion ([1]; Crystal) [kcal/mol] | Normal melting temperature ([2]; Crystal) [°C] | Molar enthalpy of transition or fusion ([1]; Crystal 1) [kcal/mol] | Molar enthalpy of transition or fusion ([1]; Crystal 2) [kcal/mol] | Normal melting temperature ([2]; Crystal 1) [°C] | Triple point temperature ([2]; Crystal 2) [K] | Structure (SMILES)
 |  | 8.47 ± 0.263 | 2.05 ± 0.201 | 34.62 ± 0.53 | 301.14 ± 0.53 | NCCCCCCCCCN [1,9-diaminononane]
12.1 ± 0.287 | 51.73 ± 0.53 |  |  |  |  | NCCCCCCCCN [1,8-diaminooctane]
16 ± 0.359 | 68.69 ± 0.53 |  |  |  |  | NCCCCCCCCCCCCN [1,12-dodecanediamine]
